Reference: PubChem BioAssay (NCI)
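Where inhibition never reached the appropriate level, the endpoint shown equals the highest concentration tested. Otherwise, values were interpolated linearly from a five-concentration, 48-hour dose response in 96-well plates. TGI is the concentration that stops growth completely.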

Legend:
Experiment in all cases: NCI tumour cell line growth inhibition, 48 h
786-0 renal = system: 786-0 renal
ACHN renal = system: ACHN renal
HCT-15 colon = system: HCT-15 colon
HOP-62 NSCLC = system: HOP-62 NSCLC
K-562 leukemia = system: K-562 leukemia
KM12 colon = system: KM12 colon
MCF7 breast = system: MCF7 breast
MDA-MB-231 breast = system: MDA-MB-231 breast
MDA-MB-435 = system: MDA-MB-435
NCI/ADR-RES ovarian = system: NCI/ADR-RES ovarian
RXF 393 renal = system: RXF 393 renal
SF-295 CNS = system: SF-295 CNS
SR leukemia = system: SR leukemia
T-47D breast = system: T-47D breast
UACC-62 melanoma = system: UACC-62 melanoma

Structure (SMILES) | TGI (786-0 renal) | TGI (ACHN renal) | TGI (HCT-15 colon) | TGI (HOP-62 NSCLC) | TGI (K-562 leukemia) | TGI (KM12 colon) | TGI (MCF7 breast) | TGI (MDA-MB-231 breast) | TGI (MDA-MB-435) | TGI (NCI/ADR-RES ovarian) | TGI (RXF 393 renal) | TGI (SF-295 CNS) | TGI (SR leukemia) | TGI (T-47D breast) | TGI (UACC-62 melanoma)
Brc1ccc(-c2cc(-c3ccc4c(c3)OCO4)c(-c3cccs3)n2Cc2ccccc2)cc1 | > 100 µM | > 100 µM | > 100 µM | > 100 µM | > 100 µM | > 100 µM | > 100 µM | > 100 µM | > 100 µM | > 100 µM | > 100 µM | > 100 µM | > 100 µM | > 100 µM | > 100 µM
CC[C@H]1C=CCC[C@@]2(C[C@@H]3CC[C@@H]4[C@H](C(=O)OCCCCCCCCCCCCCCCC(=O)N(CCCNC(C)=O)C[C@H](CCNC(C)=O)OC(C)=O)[C@]5(CCC[C@@H](C)O5)NC(=[N+]34)N2)O1 | 0.426 µM | 1.37 µM | 2.78 µM | 1.84 µM | 3.81 µM | 1.75 µM | 1.37 µM | 1.93 µM | 0.545 µM | 8.18 µM | 1.02 µM | 1.46 µM | 0.416 µM | 2.77 µM | 0.246 µM
COc1cc(Nc2nc3ccccc3nc2C(C)C)cc(OC)c1OC | > 100 µM | > 100 µM | > 100 µM | > 100 µM | > 100 µM | > 100 µM | > 100 µM | > 100 µM | > 100 µM | > 100 µM | > 100 µM | > 100 µM | > 100 µM | > 100 µM | > 100 µM
COc1ccc(/C=C(/c2ccccc2)c2c(C)cc(C)c(/C(=C\c3ccc(OC)cc3)c3ccccc3)c2N=Nc2cc(C)cc(C)c2)cc1 | > 100 µM | > 100 µM | > 100 µM | > 100 µM | > 100 µM | > 71.9 µM | > 100 µM | 16 µM | > 62.2 µM | > 100 µM | > 95.9 µM | > 100 µM | > 100 µM | > 100 µM | > 100 µM
C[N+](C)(C)C(C1=CCCC1=O)c1ccccc1 (stereo not given) | 39.9 µM | 64.3 µM | 41.5 µM | 80.2 µM | > 100 µM | 49.1 µM | 56.7 µM | 75.5 µM | 72.7 µM | > 100 µM | 41.8 µM | > 100 µM | 44.5 µM | > 100 µM | 38.8 µM
Cc1cc(C)c2c(=O)cc(-c3ccc4ccccc4c3)[nH]c2n1 | > 100 µM | > 100 µM | > 100 µM | > 93.8 µM | 4.26 µM | > 52.7 µM | > 100 µM | > 100 µM | 12 µM | > 63.9 µM | > 100 µM | > 93 µM | 18.6 µM | > 100 µM | > 100 µM
CNc1nc2c(C)ccc3[nH]c(N(C)C)nc3c-2n1 | > 100 µM | 76.8 µM | > 100 µM | > 100 µM | 45 µM | > 100 µM | > 100 µM | > 100 µM | > 100 µM | > 100 µM | > 100 µM | > 100 µM | 97.9 µM | > 100 µM | > 100 µM
Cc1ccc(C)c(COCCOCn2c(=O)[nH]c(=O)c3cc(Br)ccc32)c1 | > 100 µM | > 100 µM | > 100 µM | > 100 µM | > 100 µM | > 100 µM | > 100 µM | > 100 µM | > 100 µM | > 100 µM | > 100 µM | > 100 µM | > 100 µM | > 100 µM | > 100 µM
COC(=O)C1=COc2c(n(C)c3ccccc23)-c2ccccc21 | > 100 µM | > 100 µM | > 100 µM | > 100 µM | > 100 µM | > 100 µM | > 100 µM | > 100 µM | > 100 µM | > 100 µM | > 100 µM | > 100 µM | > 100 µM | > 100 µM | > 100 µM
NC(=O)CNC(=O)[C@@H]1C[C@@H](OCCC(=O)O)CN1C(=O)OCc1ccccc1 | > 100 µM | > 100 µM | > 100 µM | > 100 µM | > 100 µM | > 100 µM | > 100 µM | > 100 µM | > 100 µM | > 100 µM | > 100 µM | > 100 µM | > 100 µM | > 100 µM | > 100 µM
CN(C)Cc1cc(C(=O)/C=C/c2ccc(F)cc2)cc(CN(C)C)c1O | > 100 µM | 78.3 µM | 30.3 µM | 58.5 µM | 62.5 µM | 48.9 µM | 42.4 µM | > 100 µM | 38.9 µM | 86.2 µM | 46.9 µM | 31.6 µM | 71.4 µM | 46.3 µM | 8.98 µM
COC(=O)c1ccc(C)cc1CC1Cc2c(C)cccc2C1=O (stereo not given) | 34.8 µM | > 94.3 µM | 12.7 µM | > 53.4 µM | > 34.4 µM | 16.1 µM | 7.93 µM | 8.42 µM | 4.38 µM | 17.2 µM | 34.3 µM | > 52.8 µM | > 100 µM | > 100 µM | 22 µM
O=S(=O)(/N=C(\NO)Nc1ccc(Cl)cc1)C1CC=C(c2ccon2)S1 (stereo not given) | > 100 µM | > 100 µM | > 100 µM | > 100 µM | > 100 µM | > 100 µM | > 100 µM | > 100 µM | > 100 µM | > 100 µM | 87.3 µM | > 100 µM | 19.8 µM | > 100 µM | > 100 µM
COc1ccc(N(C(=O)NCCO)c2ccccc2)cc1 | > 100 µM | > 100 µM | > 100 µM | > 100 µM | > 100 µM | > 100 µM | > 100 µM | > 100 µM | > 100 µM | > 100 µM | > 100 µM | > 100 µM | > 100 µM | > 100 µM | > 100 µM
CCOP(C)(=O)/C(Cc1ccc(OC)c(OC)c1)=N\O (stereo not given) | > 100 µM | > 100 µM | > 100 µM | > 100 µM | > 100 µM | > 100 µM | > 100 µM | > 100 µM | > 100 µM | > 100 µM | > 100 µM | > 100 µM | > 100 µM | > 100 µM | > 100 µM
CCn1c(=O)c2c3cc(OC(C)=O)ccc3oc2c2ccc(OC(C)=O)cc21 | > 100 µM | 85.9 µM | > 100 µM | > 100 µM | > 100 µM | > 100 µM | > 100 µM | > 100 µM | > 100 µM | > 100 µM | > 100 µM | 72 µM | > 100 µM | 75.4 µM | > 100 µM
N#CCCN(CCC#N)c1ccc(C(N=Nc2ccc(Cl)cc2)=Nc2ccc(Cl)cc2)cc1 | 34.7 µM | 34 µM | 23.7 µM | 50.8 µM | > 100 µM | 44.1 µM | 24.7 µM | 42 µM | 88.3 µM | 38 µM | 29.1 µM | 29.2 µM | > 100 µM | 23.9 µM | 30.2 µM
Nc1ccc(OCCCc2c(-c3ccccc3)nc(N)[nH]c2=O)cc1 | > 100 µM | > 100 µM | > 100 µM | > 100 µM | > 100 µM | > 100 µM | > 100 µM | > 100 µM | > 100 µM | > 100 µM | > 100 µM | > 100 µM | > 100 µM | 81.2 µM | 43 µM
CC(=O)OC1[C@@H](OC(C)=O)CN(OCc2ccccc2)C[C@H]1OC(C)=O (stereo not given in full) | > 100 µM | > 100 µM | > 100 µM | > 100 µM | > 100 µM | > 100 µM | > 100 µM | > 100 µM | > 100 µM | > 100 µM | > 100 µM | > 100 µM | > 100 µM | > 100 µM | > 100 µM
Cc1cccc(C(=O)O)c1CC1NCCC2c3ccccc3NC12 (stereo not given) | > 100 µM | > 100 µM | > 100 µM | > 100 µM | > 100 µM | > 100 µM | > 100 µM | > 100 µM | > 100 µM | > 100 µM | > 100 µM | > 100 µM | > 100 µM | > 100 µM | > 100 µM
COCn1c(C)c(C)c2c(=O)oc(C)nc21 | > 100 µM | > 100 µM | > 100 µM | > 100 µM | > 100 µM | > 100 µM | > 100 µM | > 100 µM | > 100 µM | > 100 µM | > 100 µM | > 100 µM | > 100 µM | > 100 µM | > 100 µM
O=c1c2c3c(sc2nc2n1N=C(c1ccc([N+](=O)[O-])cc1)CS2)CCCC3 | > 100 µM | > 100 µM | > 100 µM | > 100 µM | > 100 µM | > 100 µM | > 100 µM | > 100 µM | > 100 µM | > 100 µM | > 100 µM | > 100 µM | > 100 µM | > 100 µM | > 100 µM
O=P1(Oc2ccccc2)NCc2ncccc2O1 (stereo not given) | > 100 µM | > 100 µM | > 100 µM | > 100 µM | > 100 µM | > 100 µM | > 100 µM | > 100 µM | > 100 µM | > 100 µM | > 100 µM | > 100 µM | > 100 µM | > 100 µM | > 100 µM
